Experiment [1] deals with Mus musculus. The experiment in a line: Antiangiogenic effect in Swiss Albino mouse bearing EAT cells assessed as inhibition of blood vessel formation in at 100 mg/kg, ip. It is filed as functional. The conditions noted are these: route intraperitoneal.
For experiment [2], the system named is Mus musculus. Put plainly: Growth inhibition of Swiss Albino mouse bearing EAT cells assessed as increase in life span at 100 mg/kg, ip. It is filed as functional. Also noted: scale not given: the % may be the effect or the level left. The conditions noted are these: route intraperitoneal.
The test system of experiment [3] is Mus musculus. Put plainly: Growth inhibition of Swiss Albino mouse bearing EAT cells assessed as decrease in ascites volume at 100 mg/kg, ip relative to control. It is filed as functional, organism-based. Also noted: dose 100 mg/kg.
Experiment [4] is filed under the species Mus musculus. The experiment in a line: Antiangiogenic effect in Swiss Albino mouse bearing EAT cells assessed as decrease in microvessel density by CAM assay. It is filed as functional, organism-based.
Experiment [5] has as its system Mus musculus. Put plainly: Growth inhibition of Swiss Albino mouse bearing EAT cells assessed as increase in median survival time at 100 mg/kg, ip. The conditions noted are these: route intraperitoneal. It is filed as functional.
Experiment [6] concerns Mus musculus. Put plainly: Growth inhibition of Swiss Albino mouse bearing EAT cells assessed as reduction in cell numbers at 100 mg/kg, ip relative to control. It is filed as functional, organism-based. More on the design: dose 100 mg/kg.
For experiment [7], the system named is Mus musculus. Put plainly: Growth inhibition of Swiss Albino mouse bearing EAT cells assessed as increase in life span at 100 mg/kg, ip administered on day 11 after tumor inoculation. More on the design: scale not given: the % may be the effect or the level left. To be noted: route intraperitoneal. In kind it is functional.
In experiment [8] the test system is Mus musculus. Put plainly: Growth inhibition of Swiss Albino mouse bearing EAT cells assessed as increase in life span at 100 mg/kg, ip administered on day 9 after tumor inoculation. In kind it is functional. Also noted: scale not given: the % may be the effect or the level left. The conditions noted are these: route intraperitoneal.
The subject of experiment [9] is Mus musculus. The experiment in a line: Growth inhibition of Swiss Albino mouse bearing EAT cells assessed as increase in life span at 100 mg/kg, ip administered on day 7 after tumor inoculation. More on the design: scale not given: the % may be the effect or the level left. The conditions noted are these: route intraperitoneal. In kind it is functional.

The structures appear in SMILES notation. The source made the active and inactive calls. The calls are words filed in the database; no cut-off is given here.

Turning to `Cc1cc(/C=C/C(=O)/C=C/c2ccc(OC3CC3)c(C)c2)ccc1OC1CC1`, the values for the Activity with Mus musculus [1], in the experiment on Mus musculus [2] and in the experiment on Mus musculus [7] were 4.4, 28.8% and 28.8%, respectively. For the same compound, the result in the experiment with Mus musculus [3], in the experiment filed under Mus musculus [4] and in the experiment on Mus musculus [6] was Active. The Survival in the experiment on Mus musculus [5] stood at 23.2 days.
As to `O=C(/C=C/c1ccc(OC2CC2)cc1)/C=C/c1ccc(OC2CC2)cc1`, the Activity was 4.2 with Mus musculus [1], 34.4% in the experiment with Mus musculus [8] and 34.4% with Mus musculus [2]. Moreover, the outcome in the experiment on Mus musculus [3], in the experiment listed under Mus musculus [4] and in the experiment on Mus musculus [6] was Active. The Survival with Mus musculus [5] turned out to be 24.2 days.
Turning to `COc1cc(/C=C/C(=O)/C=C/c2cc(OC)c(OC3CC3)c(OC)c2)cc(OC)c1OC1CC1`, the Activity in the experiment on Mus musculus [1] is recorded as 2.8; with Mus musculus [2], 77.7%. For the same compound, the result with Mus musculus [3], in the experiment listed under Mus musculus [4] and with Mus musculus [6] was Active. Further, in the experiment with Mus musculus [5], the Survival was 32 days.
In the case of `COc1cc(/C=C/C(=O)/C=C/c2ccc(OC3CC3)c(OC)c2)ccc1OC1CC1`, the figures for the Activity in the experiment on Mus musculus [1], with Mus musculus [2] and with Mus musculus [9] were 3, 48.8% and 48.8%, respectively. Moreover, the outcome in the experiment on Mus musculus [3], in the experiment filed under Mus musculus [4] and in the experiment with Mus musculus [6] was Active. Moreover, the Survival in the experiment with Mus musculus [5] was found to be 26.8 days.

(Values after ChEMBL document CHEMBL1137521, “In vivo growth inhibitory and anti-angiogenic effects of synthetic novel dienone cyclopropoxy curcumin analogs on mouse Ehrlich ascites tumor” (2007).)
